pIC50: −log10 of the molar value. Several values for one entry are separate records, joined by “and”; a condition that tells them apart may be missing. Equal entries are not always repeated.
System: 521955-158-R2-J5-PDC complex spheroid growth
Assay: Anticancer human tumor 521955-158-R2-J5-PDC patient-derived pancreatic carcinoma cell line growth inhibition [AhR]
Conditions: for viability, T/C: stronger effect = lower value
Outline: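 Complex tumor spheroids co-cultured with HUVEC and human MSC stroma; AhR antagonists tested in combination with standard-of-care and investigational agents. Top concentration at or near clinical Cmax (else 10 microM), half-log dilutions; growth expressed as percent test/control.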

[1] = curve of first compound, second compound 0.1 µM
[2] = curve of first compound, second compound 0.316 µM
[3] = curve of first compound, second compound 1 µM
[4] = curve of first compound, second compound 3.16 µM
[5] = curve of first compound, second compound 10 µM
[6] = second compound 0.1 µM, first compound 0.000316 µM
[7] = second compound 0.1 µM, first compound 0.001 µM
[8] = second compound 0.1 µM, first compound 0.00316 µM
[9] = second compound 0.1 µM, first compound 0.01 µM
[10] = second compound 0.1 µM, first compound 0.0316 µM
[11] = second compound 0.1 µM, first compound 0.1 µM
[12] = second compound 0.316 µM, first compound 0.000316 µM
[13] = second compound 0.316 µM, first compound 0.001 µM
[14] = second compound 0.316 µM, first compound 0.00316 µM
[15] = second compound 0.316 µM, first compound 0.01 µM
[16] = second compound 0.316 µM, first compound 0.0316 µM
[17] = second compound 0.316 µM, first compound 0.1 µM
[18] = second compound 1 µM, first compound 0.000316 µM
[19] = second compound 1 µM, first compound 0.001 µM
[20] = second compound 1 µM, first compound 0.00316 µM
[21] = second compound 1 µM, first compound 0.01 µM
[22] = second compound 1 µM, first compound 0.0316 µM
[23] = second compound 1 µM, first compound 0.1 µM
[24] = second compound 3.16 µM, first compound 0.000316 µM
[25] = second compound 3.16 µM, first compound 0.001 µM
[26] = second compound 3.16 µM, first compound 0.00316 µM
[27] = second compound 3.16 µM, first compound 0.01 µM
[28] = second compound 3.16 µM, first compound 0.0316 µM
[29] = second compound 3.16 µM, first compound 0.1 µM
[30] = second compound 10 µM, first compound 0.000316 µM
[31] = second compound 10 µM, first compound 0.001 µM
[32] = second compound 10 µM, first compound 0.00316 µM
[33] = second compound 10 µM, first compound 0.01 µM
[34] = second compound 10 µM, first compound 0.0316 µM
[35] = second compound 10 µM, first compound 0.1 µM
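Throughout, for viability, T/C: spheroids mix tumor cells with HUVEC endothelium and human MSC stroma; luminescence taken as viability surrogate after a week of drug exposure.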

Row | SMILES | pIC50 [1] | pIC50 [2] | pIC50 [3] | pIC50 [4] | pIC50 [5] | viability, T/C [6] | viability, T/C [7] | viability, T/C [8] | viability, T/C [9] | viability, T/C [10] | viability, T/C [11] | viability, T/C [12] | viability, T/C [13] | viability, T/C [14] | viability, T/C [15] | viability, T/C [16] | viability, T/C [17] | viability, T/C [18] | viability, T/C [19] | viability, T/C [20] | other results
1 | Cn1ncnc1C1c2n[nH]c(=O)c3cc(F)cc(c23)NC1c1ccc(F)cc1 (configuration not stated) + Cc1cncc(-c2nc(NCCc3c[nH]c4ccccc34)c3ncn(C(C)C)c3n2)c1 | < 7.00 | < 7.00 | < 7.00 | < 7.00 | < 7.00 | 114% | 106% | 94.6% | 109% | 93% | 83% | 105% | 121% | 93.3% | 110% | 87.6% | 101% | 122% | 117% | 116% | viability, T/C [21]: 127%; viability, T/C [22]: 116%; viability, T/C [23]: 99.5%; viability, T/C [24]: 114%; viability, T/C [25]: 142%; viability, T/C [26]: 115%; viability, T/C [27]: 119%; viability, T/C [28]: 122%; viability, T/C [29]: 107%; viability, T/C [30]: 134%; viability, T/C [31]: 143%; viability, T/C [32]: 106%; viability, T/C [33]: 105%; viability, T/C [34]: 111%; viability, T/C [35]: 104%
2 | O=C(c1cc(Cc2n[nH]c(=O)c3ccccc23)ccc1F)N1CCN(C(=O)C2CC2)CC1 |  |  |  |  |  |  |  |  |  |  |  |  |  |  |  |  |  |  |  |  | viability, T/C (compound 0.0316 µM): 95.8% and 118% and 96.5%; viability, T/C (compound 0.1 µM): 104% and 72.7% and 112%; viability, T/C (compound 0.316 µM): 117% and 80.1% and 96%; viability, T/C (compound 1 µM): 89.8% and 84.7% and 92.4%; viability, T/C (compound 3.16 µM): 104% and 92.2% and 90.4%; viability, T/C (compound 10 µM): 84.5% and 65.4% and 76.3%; pIC50 (curve of compound): < 5.00
3 | CC[C@@]1(O)C(=O)OCc2c1cc1n(c2=O)Cc2cc3c(CN(C)C)c(O)ccc3nc2-1 + CC(CO)NC(=O)c1cc(-c2ccc(Cl)cc2)nn(-c2cnn(C)c2)c1=O | 7.49 | 7.44 | 7.55 | 7.66 | 7.70 | 99.8% | 91.6% | 110% | 82.5% | 51.8% | 16% | 112% | 109% | 89.8% | 82.5% | 57.4% | 13.3% | 93% | 104% | 106% | viability, T/C [21]: 86.5%; viability, T/C [22]: 46.1%; viability, T/C [23]: 20.1%; viability, T/C [24]: 99.2%; viability, T/C [25]: 102%; viability, T/C [26]: 91.8%; viability, T/C [27]: 75.4%; viability, T/C [28]: 38.3%; viability, T/C [29]: 19.2%; viability, T/C [30]: 76.5%; viability, T/C [31]: 86.3%; viability, T/C [32]: 85.6%; viability, T/C [33]: 71.6%; viability, T/C [34]: 35.3%; viability, T/C [35]: 17.9%

From PubChem BioAssay AID1918998 (Molecular Pharmacology Branch, DTP, NCI, 2023)
